From US5798447A, “Antibodies specific for D-myo-inositol 1, 4, 5-trisphosphate and the enzyme-linked immunosorbent assay of D-myo-inositol 1, 4, 5-trisphosphate” (The Board of Governors for Higher Education State of Rhode …, priority 1996, dated 1998)
Entries after “also recorded” stand apart in the source; their conditions may differ.

Key:
[1] = test system: affinity-purified Ins(1,4,5)P3-specific antibodies; assay: Inhibition of binding of affinity-purified antibodies to immobilized Ins(1,4,5)P3 by ions; parameters: species or system New Zealand White rabbit; settings: for IC50: affinity-purified antibodies, preincubation 30 minutes, room temperature, read-out: IC50 for inhibition of antibody binding to immobilized Ins(1,4,5)P3; for inhibition of / interference with antibody binding to immobilized Ins(1,4,5)P3: concentration not stated with the result, or 'high concentrations'; for inhibition of antibody recognition by cations: concentrations up to 100 mM; for interference with antibody binding to immobilized Ins(1,4,5)P3: up to 0.3 mM
Protocol: (§1) The presence of anti-Ins(1,4,5)P3 antibodies in rabbit serum was detected by an ELISA. Ins(1,4,5)P3 (hapten) was covalently attached to microtiter plates through a C-6 linker by adding 6-O-(ω-Aminohexyl)-D-myo-inositol 1,4,5-triphosphate (1) (1.25 μg in 0.1 ml of phosphate buffered saline (PBS) per well) to maleic anhydride-activated polystyrene plates (Pierce). This anhydride-activated plate allows direct coupling of amine-bearing molecules to the well surface, (Pierce Chemical Co. Instruction 15110X (1992) REACTI-BIND™ Maleic Anhydride Activated Polystyrene Plates), and obviates the need for a carrier protein to immobilize haptens. The plate was incubated at room temperature overnight, and each well was blocked by adding 0.12 ml of SUPERBLOCK ™ blocking solution in PBS (Pierce). After 10 minutes at room temperature, the plate was washed twice with 0.05% Tween-20 in 10 mM Tris/HCl containing 0.85% NaCl, pH 7.2 (TBS), followed by TBS buffer twice. Rabbit antiserum (antibodies) diluted in TBS buffer containing 0.1% gelatin was added (95 μl per well). The plate was incubated at 37° C. for 2 hours, and washed as stated above. Specific antibody binding was assessed by adding goat anti-rabbit IgG-HRP conjugate (1/200 dilution in TBS containing 0.1% gelatin; 90 μl per well), and the plate was incubated for another 2 hours at 37° C. After the plate was washed again, the peroxidase substrate solution (90 μl per well) containing 2 mM 2,2'-azinobis(3-ethyl-benzthiazoline-6-sulfonic acid), 2.5 mM hydrogen peroxide, and 50 mM citrate buffer, with a final pH of 5.0, was added. The reaction was incubated at room temperature for 15-20 minutes, and terminated by adding 20 μl of 5% SDS to each well. The absorbance at 415 nm was measured by a microtiter plate reader. Rabbit serum taken before immunization was used as a control in all the assays, from which the absorbance values obtained served as a blank for the correction of experimental data.
Referring to FIG. 3, the affinity-purified antibodies were preincubated with individual multivalent ions at indicated concentrations for 30 minutes at room temperature before added to the (1,4,5)IP3 immobilized EIA plates. […] The assay for the binding inhibition was the same as that described for the ELISA in the Experimental Procedures. Percentage maximal antibody binding is expressed by B/Bo, where B=absorbance with inhibitor and Bo =absorbance without inhibitor. Each data point represents the means of three determinations.

[2] = test system: IP3 -C5 -BSA induced antibodies (anti-Ins(1,4,5)P3 antiserum); assay: Competitive ELISA: immobilized Ins(1,4,5)P3 vs competitor, IP3-C5-BSA induced antiserum; format: binding, New Zealand White rabbit; settings: for IC50: competitive ELISA, read-out: [Competitor] (M) at half maximal absorbance (B/Bo = 0.5) or IC50
Protocol: (§2) New Zealand White female rabbits were immunized with 1 mg of the IP3 -BSA conjugate in 0.5 ml of saline emulsified with an equal volume of Freund's complete adjuvant by five to six subcutaneous injections at the back and both flanks. Booster injections were given with the same amounts of the IP3 -BSA prepared with incomplete Freund's adjuvant at monthly intervals. After the second boost, the animals were bled from the ear vein 2 weeks after each booster injection. The antisera thus prepared were stored at -20° C. until used.
as §1
(§3) The avidity and specificity of these antisera were examined by competitive ELISA experiments between immobilized Ins(1,4,5)P3 and various inositol phosphates.
(§4) Table 1 Avidity of antisera toward various inositol phosphates and
(§5) PIP2. The avidity is expressed as the concentrations at halfmaximal
(§6) absorbance (B/Bo = 0.5) in the competitive ELISA experiments.

[3] = test system: IP3 -C6 -NC5 -BSA induced antibodies (anti-Ins(1,4,5)P3 antiserum); assay: Competitive ELISA: immobilized Ins(1,4,5)P3 vs competitor, IP3-C6NC5-BSA induced antiserum; format: binding, New Zealand White rabbit; settings: for IC50: IP3-C6-NC5-BSA induced antibodies, competitive ELISA, read-out: [Competitor] (M) at half maximal absorbance (B/Bo = 0.5) or IC50
Protocol: as §2, §1, §3, §4, §5, §6

[4] = test system: affinity-purified Ins(1,4,5)P3-specific antibodies (from IP3 -C5 -BSA induced antiserum); assay: Competitive ELISA with affinity-purified Ins(1,4,5)P3-specific antibodies and inositol phosphates; format: binding, New Zealand White rabbit
Protocol: as §1
The antiserum (5.2 ml) was applied to an ECONO-PAC ™ protein A cartridge (5 ml, Bio-Rad) equilibrated with 100 mM Tris/HCl, pH 8.0. The column was washed with, in sequence, 20 ml of the equilibrating buffer, and 25 ml of 10 mM Tris/HCl, pH 8.0. The bound IgG was eluted with 25 ml of 100 mM glycine buffer, pH 3.0, at a flow rate of 0.5 ml/min. Fractions of 1.7 ml were collected in tubes containing 100 μl of 1M Tris/HCl, pH 8.0.
The dialyzed solution from step 1 was applied to a Ins(1,4,5)IP3 -agarose column (5.8 ml bed volume) equilibrated with 10 mM Tris/HCl, pH 7.5. The column was washed with the equilibration buffer followed by 500 mM NaCl in the same buffer. The absorbed proteins were eluted with, in sequence, 50 ml of 100 mM glycine buffer, pH 3.5, 10 ml of 10 mM Tris/HCl, pH 8.8, and 50 ml of 100 mM NaHCO3 /Na2 CO3 buffer, pH 10.5 Fractions of 1.7 ml were collected. For the eluate with the glycine buffer and with the NaHCO3 /Na2 /CO3 buffer, fractions were collected in tubes containing 100 μl of 1M Tris/HCl, pH 8.0, and 700 μl of 1M Tris/HCl, pH 7.6, respectively.
Referring to FIG. 2, the displacement curves were generated from competitive ELISA experiments between immobilized (1,4,5)IP3 and various inositol phosphates shown in the insert. The antibodies were preincubated with individual competitors at various concentrations for 30 minutes at room temperature before added to the (1,4,5)IP3 immobilized EIA plates. The assay for the competitive binding was the same as that described for the ELISA under "Experimental Procedures". Percentage total specific binding is expressed by B/Bo, where B=absorbance with competitor and Bo =absorbance without competitor. Each data point represents the means of three determinations. For clarity, the standard deviations were not shown.

Ins(1,4,5)P3 receptors = settings: Wilcox et al. 1993, cited from earlier work; for IC50: read-out: IC50 for displacing [3H]Ins(1,4,5)P3 binding from Ins(1,4,5)P3 receptors

Compound | IC50 ([2]; IP3-C5-BSA induced antibodies) [M] | IC50 [3] [M] | inhibition of / interference with antibody binding to immobilized Ins(1,4,5)P3 [1] | lower affinity relative to Ins(1,4,5)P3 ([3]; both antiserum preparations) | other results
N.N.O=S(=O)(O)O [(NH4)2 SO4] |  |  |  |  | binding capability of antibodies after (NH4)2SO4 precipitation ([1]; even after extensive dialysis): complete loss of binding capability
Nc1ncnc2c1ncn2[C@@H]1O[C@H](COP(=O)(O)OP(=O)(O)OP(=O)(O)O)[C@@H](O)[C@H]1O [ATP^4 -] |  |  | could be disrupted |  | IC50 [1]: 0.21 mM
Cl [C1-] |  |  | no appreciable interference |  | 
O=P(O)(O)O [HPO4^2 -] |  |  | could be disrupted |  | IC50 [1]: 2.61 mM
O=P(O)(O)O[C@H]1[C@H](OP(=O)(O)O)[C@@H](OP(=O)(O)O)[C@H](OP(=O)(O)O)[C@@H](OP(=O)(O)O)[C@H]1OP(=O)(O)O [IP6, Phytic acid] | 0.0008 | 0.00015 |  | two to four orders of magnitude | 
O=P(O)(O)OC1[C@H](O)[C@H](O)C(O)[C@H](O)[C@H]1O (stereo partly shown) [Ins(1)P1] |  | 0.00042 |  | two to four orders of magnitude | 
O=P(O)(O)OC1C(O)C(OP(=O)(O)O)C(OP(=O)(O)O)C(OP(=O)(O)O)C1OP(=O)(O)O (stereo not shown) [Ins(1,3,4,5,6)P5] |  |  |  |  | IC50 [4]: 45 µM; IC50 relative to that of Ins(1,4,5)P3 [4]: three orders or magnitude higher
O=P(O)(O)O[C@H]1[C@H](OP(=O)(O)O)[C@H](O)[C@H](O)[C@@H](O)[C@@H]1OP(=O)(O)O [Ins(1,5,6)P3] |  |  |  | two to four orders of magnitude | order of affinity toward various inositol phosphates ([3]; IP3-C6NC5-BSA induced antiserum): Ins(3,4,5,6)P4 >Ins(1,5,6)P3, PIP2, Ins(1,2,5,6)P4 >Ins(4,5)P2
[K+] [K+] |  |  | did not affect the binding |  | inhibition of antibody recognition by cations [1]: did not cause significant inhibition
[N-]=[N+]=[N-] [N3 -] |  |  | no appreciable interference |  | 
N [NH4 +] |  |  |  |  | inhibition of antibody recognition by cations [1]: did not cause significant inhibition
[Na+] [Na+] |  |  | no inhibiting effect; also recorded: did not affect the binding |  | inhibition of antibody recognition by cations [1]: did not cause significant inhibition
O=S(=O)(O)O [SO4^2 -] |  |  | could be disrupted |  | IC50 [1]: 11.6 mM
NC(CO)(CO)CO [Tris] |  |  |  |  | inhibition of antibody recognition by cations [1]: did not cause significant inhibition
heparin |  |  |  |  | interference with antibody binding to immobilized Ins(1,4,5)P3 [1]: not affected; interference with antibody binding to immobilized Ins(1,4,5)P3 ([1]; listed as haparin): no appreciable interference

Now from value to compound, other results behind:

IC50 ([2]; IP3-C5-BSA induced antibodies) [M] | IC50 [3] [M] | Compound | inhibition of / interference with antibody binding to immobilized Ins(1,4,5)P3 [1] | lower affinity relative to Ins(1,4,5)P3 ([3]; both antiserum preparations) | other results
7.1e-05 | 2.1e-05 | O=P(O)(O)O[C@H]1[C@H](OP(=O)(O)O)[C@@H](OP(=O)(O)O)[C@H](O)[C@@H](O)[C@H]1OP(=O)(O)O [Ins(1,2,5,6)P4] |  | two to four orders of magnitude | 
1e-05 | 1.7e-06 | O=P(O)(O)O[C@H]1[C@H](O)[C@@H](O)[C@H](OP(=O)(O)O)[C@@H](OP(=O)(O)O)[C@H]1O [Ins(1,3,4)P3] |  | two to four orders of magnitude | IC50 [4]: 39 µM; IC50 relative to that of Ins(1,4,5)P3 [4]: three orders or magnitude higher; decrease in affinity compared with IP3-C6NC5-BSA induced antiserum ([2]; IP3-C5-BSA induced antibodies): 10 fold
7.1e-08 | 2e-07 | O=P(O)(O)O[C@H]1[C@H](O)[C@@H](OP(=O)(O)O)[C@H](OP(=O)(O)O)[C@@H](OP(=O)(O)O)[C@H]1O [Ins(1,3,4,5)P4] |  |  | IC50 [4]: 0.73 µM; differential affinity, ratio of IC50 values Ins(1,3,4,5)P4 / Ins(1,4,5)P3 [4]: 60 fold; weaker than Ins(1,4,5)P3 at displacing specific [3H]Ins(1,4,5)P3 binding (Ins(1,4,5)P3 receptors): about 40 fold; IC50 (Ins(1,4,5)P3 receptors): 762 nM; binding compared with IP3-C6NC5-BSA induced antiserum ([2]; IP3-C5-BSA induced antibodies): stronger binding; ratio of IC50[Ins(1,3,4,5)P4] to IC50[Ins(1,4,5)P3] ([2]; antiserum against IP3-C5-BSA): 2.3; differential affinity, ratio of IC50 values before purification ([2]; antiserum before affinity purification): 2 fold; ratio of IC50[Ins(1,3,4,5)P4] to IC50[Ins(1,4,5)P3] ([3]; antiserum against IP3-C6NC5-BSA): 2.2; affinity relative to Ins(1,4,5)P3 ([3]; both antiserum preparations): one-third of the affinity
3.1e-08 | 8.9e-08 | O=P(O)(O)O[C@@H]1[C@H](O)[C@H](O)[C@@H](OP(=O)(O)O)[C@H](OP(=O)(O)O)[C@H]1O [Ins(1,4,5)P3, D-myo-inositol 1,4,5-trisphosphate] |  |  | IC50 [4]: 0.012 µM; IC50 (Ins(1,4,5)P3 receptors): 20.7 nM; binding compared with IP3-C6NC5-BSA induced antiserum ([2]; IP3-C5-BSA induced antibodies): stronger binding
6.3e-06 | 4.5e-06 | O=P(O)(O)O[C@H]1[C@H](OP(=O)(O)O)[C@@H](OP(=O)(O)O)[C@@H](O)[C@@H](O)[C@@H]1OP(=O)(O)O [Ins(3,4,5,6)P4] |  | two to four orders of magnitude | 
2.5e-05 | 3.8e-05 | O=P(O)(O)O[C@@H]1[C@@H](O)[C@H](O)[C@H](O)[C@H](O)[C@H]1OP(=O)(O)O [Ins(4,5)P2] |  | two to four orders of magnitude | IC50 [4]: 14 µM; IC50 relative to that of Ins(1,4,5)P3 [4]: three orders or magnitude higher
3.2e-05 | 1.6e-05 | PIP2 |  | two to four orders of magnitude | IC50 [4]: 14 µM; IC50 relative to that of Ins(1,4,5)P3 [4]: three orders or magnitude higher
